Measurements reported in PubChem BioAssay AID179 (DTP/NCI, 2004).
Active and inactive are the calls of the source.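 Rule for the calls: active = compounds giving half or more protection of infected cells from virus-caused growth loss, again on retest; inactive = the rest.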

Test system: CEM cells HIV-1 protection, formazan growth assay
Assay: NCI AIDS Antiviral Assay
Settings: for IC50: measured here: growth of uninfected CEM cells
Summary of the method: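 CEM (human) cells, HIV-1 infected vs uninfected, 5-point dosing, formazan growth read-out. Retest threshold 50% protection.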

Row | Structure (SMILES) | EC50 | IC50 | outcome
1 | O=C(Nc1ccccc1)Nc1ccc([N+](=O)[O-])cn1 | > 200 µM | > 200 µM | 
2 | C/C(CCn1[nH]c(=O)ccc1=O)=N\NC(=O)C(=O)NN | > 1.95 µM | > 1.95 µM | 
3 | CC(=O)O[C@H]1[C@@H](OC2CCCC2(c2ccccc2)c2ccccc2)O[N+]([O-])=C[C@@H]1c1ccccc1 (stereo not given in full) | > 200 µM | 3.09 µM | 
4 | C/C=C/C(=O)N1C(=O)OC[C@@H]1c1ccccc1 | > 200 µM | 6.92 µM | 
5 | CC1Nc2ccccc2NC1C=C(C#N)C#N (stereo not given) | > 44.7 µM | 6.76 µM | 
6 | O=C(O)CSc1ccc2c3c(cccc13)C(=O)c1ccccc1-2 | > 200 µM | 3.09 µM | 
7 | CC(=O)OC[C@]12CCC3[C@@]4(C)CCCC(C)(C)C4CC[C@@]3(C)C1CC(C1=CC(=O)OC1O)O2 (stereo not given in full) | > 200 µM | 0.759 µM | 
8 | COC(=O)C(N)CSCc1ccccc1 (stereo not given) | > 692 µM | 589 µM | 
9 | C[C@@]12C[C@@H](c3ccccc3O1)N1CCCSC1=N2 | 74.1 µM | > 200 µM | 
10 | COc1ccc(-c2cc(=O)c3c(OC)c(OC)c(OC)cc3o2)cc1 | > 129 µM | 41.7 µM | 
11 | CC1(C)c2ccccc2C(C)(C)[N+]1(C)C | > 200 µM | 123 µM | 
12 | CC1CCCOc2ccc(cc2)C=Nc2ccc(cc2)CCc2ccc(cc2)N=Cc2ccc(cc2)OCCC1 (stereo not given) | > 200 µM | > 200 µM | 
13 | COC(=O)c1sc2c(=O)c(C(=O)OC)c(C(=O)OC)sc2c(=O)c1C(=O)OC | > 151 µM | 12 µM | 
14 | Nc1c2c([nH]c(=O)c1N)CCC2 | > 200 µM | > 200 µM | 
15 | O=C1CCC2(c3ccc(Cl)cc3)Nc3cc(Cl)ccc3N12 (stereo not given) |  |  | inactive
16 | Cc1ccc(S(=O)(=O)N/N=C(\c2nc3ccc(Cl)cc3[nH]c2=O)C(O)c2cccc([N+](=O)[O-])c2)cc1 (stereo not given) | > 468 µM | 162 µM | 
17 | CCCCNC(=S)Nn1c(-c2ccccc2)nc2ccccc2c1=O | > 20.4 µM | > 20.4 µM | 
18 | CC(C)C1=CC2=C(C(=O)C1=O)C13CCCC(C)(C)C1CC2OC3=O (stereo not given) | > 79.4 µM | 28.2 µM | 
19 | CC1(C)CC2(C)CC1CC2(O)c1ccccc1 (stereo not given) | > 219 µM | 61.7 µM | 
20 | C=CCC(CC=O)(C(=O)OCC)C(=O)OCC | > 200 µM | 110 µM | 
21 | CN1C(=O)CC(Sc2ccccc2)c2ccccc21 (stereo not given) | > 200 µM | 36.3 µM | 
22 | O=C(O)C1C2c3ccccc3C(O)C1(C(=O)O)c1ccccc12 (stereo not given) | > 407 µM | > 407 µM | 

Row | Structure (SMILES) | EC50 | IC50 | outcome
23 | Cn1c(CCN=C(N)CSS(=O)(=O)O)nc2ccccc21 | > 200 µM | 174 µM | 
24 | N#C/C(=C\c1cccc(Br)c1)C(=O)c1ccccc1 | > 115 µM | 50.1 µM | 
25 | NNC(=O)/C(=C/c1cccc([N+](=O)[O-])c1)NC(=O)c1ccccc1 | > 398 µM | > 398 µM | 
26 | C#CCN(N=O)C(=O)NCCCC(NC(C)=O)C(=O)NCc1ccccc1 (stereo not given) | > 676 µM | 51.3 µM | 
27 | N#Cc1c2c(c(N3CCOCC3)n3c1nc1ccccc13)CCCC2 | > 200 µM | 8.32 µM | 
28 | COc1cccc(CCn2c(N)c(-c3cc(Cl)cc(Cl)c3)c3ccc([N+](=O)[O-])cc3c2=O)c1 | > 200 µM | 3.39 µM | 
29 | Cc1ccc(NC(=O)/C(Cc2nc3ccc([N+](=O)[O-])cc3[nH]c2=O)=N\NC(=O)C[n+]2ccccc2)c(C)c1 | > 234 µM | 170 µM | 
30 | CC12CC3(C)CC(C)(C1)CC(C(NC(C)(C)C)C(=O)O)(C2)C3 (stereo not given) |  |  | inactive
31 | Clc1nc(Cl)nc(Nc2cccc3ccccc23)n1 | > 200 µM | 107 µM | 
32 | CCOC(=O)/C(C#N)=C/c1cccc(Cl)c1 | > 79.4 µM | > 79.4 µM | 
33 | CCCCCCCCCC1CC(=O)OC23CCCC(=O)C12O3 (stereo not given) | > 32.4 µM | > 32.4 µM | 
34 | N#C/C(=C\N1CC(=O)NC1=S)c1nc2ccccc2s1 |  |  | inactive
35 | O=c1oc2cc(O)ccc2c2oc3cc(O)ccc3c12 | > 0.513 µM | 0.0162 µM | 
36 | Cn1nc(-c2ccc(Cl)c(Cl)c2)nc2c(=O)n(C)c(=O)nc1-2 | > 200 µM | 3.8 µM | 
37 | Oc1ccc(-c2nc(=S)[nH][nH]2)cc1 | > 933 µM | 72.4 µM | 
38 | CC(=O)OC1C(CN2CCOC2=O)OC(n2ccc(=O)[nH]c2=O)C1OC(C)=O (stereo not given) | > 200 µM | > 200 µM | 
39 | COc1ccccc1C(=O)Nc1ccc(Cl)c(C(=O)OC(C)C)c1 |  |  | active
40 | COC(=N)CCSSCCC(=N)OC | > 200 µM | > 200 µM | 
41 | CCCCCCCCCCCCCCCCNc1ccn(C2CC(OP(=O)(O)OCC3CCC(n4ccc(N)nc4=O)O3)C(CO)O2)c(=O)n1 (stereo not given) | 1 µM | 97.7 µM | 
42 | COc1cc(/C=C/c2ccc3ccccc3n2)cc(OC)c1OC | > 22.4 µM | 1.48 µM | 
43 | O=C1N[C@@H]2CCC[C@@H]2[C@@H]1c1ccc(Cl)cc1 | > 380 µM | 155 µM | 
44 | N=C(N)SCCCON | > 200 µM | > 200 µM | 

Row | Structure (SMILES) | EC50 | IC50 | outcome
45 | CCC(C)C(=O)c1c(O)c(CC=C(C)C)c2c3c(cc(=O)oc13)C(CC)O2 (stereo not given) | > 200 µM | 25.1 µM | 
46 | COc1ccc(C(=O)/C=C/c2ccc(OCCCCCCCCCCOc3ccc(/C=C/C(=O)c4ccc(OC)c(OC)c4)cc3)cc2)c(OC)c1 |  |  | inactive
47 | CC(/C(=N\Nc1ccccc1)c1ccc(O)cc1)C1C(=O)Oc2ccccc21 (stereo not given) |  |  | inactive
48 | CC(NC1CC1)c1ccccc1 (stereo not given) |  |  | inactive
49 | CN(C)c1ccc(/C=C/C(=O)/C=C/c2ccc(N(C)C)cc2)cc1 | > 4.27 µM | > 4.27 µM | 
50 | N#CCc1nc(-c2cc3ccccc3oc2=O)cs1 | > 200 µM | 38 µM | 
51 | CC1CN=C(N(C(=O)Nc2ccccc2)C2CCCCC2)S1 (stereo not given) |  |  | inactive
52 | CCCCNC(=O)C1C2C=CC(O2)C1C(=O)O (stereo not given) | > 200 µM | > 200 µM | 
53 | Oc1ccc(C2(c3ccc(O)cc3)CCCC2)cc1 | > 200 µM | 30.9 µM | 
54 | CCOC(=O)/C=C(/OCC)[C@@H]1C(C(=O)c2ccc(Cl)cc2)[C@@H]1/C(=C\C(=O)OCC)OCC (stereo not given in full) | > 200 µM | 5.89 µM | 
55 | Cc1noc2c1N=C(c1cccs1)CC(c1c(Cl)cccc1Cl)C2 (stereo not given) | > 19.1 µM | > 19.1 µM | 
56 | OC(/C=C/c1ccccc1)Cc1nc2ccccc2[nH]1 (stereo not given) | > 38 µM | > 38 µM | 
57 | CCC[CH2][Ge]([CH2]CCC)([CH2]CCC)[O]C(=O)CCl | > 32.4 µM | > 32.4 µM | 
58 | Oc1ccccc1-c1nn2c(CCCCCCCCc3nnc4sc(-c5ccccc5O)nn34)nnc2s1 | > 200 µM | 12 µM | 
59 | CCCCCCCCOC(=O)CC(C(=O)OCCCCCCCC)S(=O)(=O)O (stereo not given) | > 200 µM | 117 µM | 
60 | CN(/N=C(\C(=O)O)c1ccccc1)C1=NCCN1 | > 200 µM | > 200 µM | 
61 | O=S1(=O)c2ccccc2N(c2ccccc2)c2nnnn21 | > 79.4 µM | 33.1 µM | 
62 | O=[N+]([O-])c1ccc2c(c1)/C(=N/N=C1c3ccccc3Cc3ccccc31)c1cc([N+](=O)[O-])cc([N+](=O)[O-])c1-2 |  |  | inactive
63 | FC(F)(F)c1ccc2c(-c3cc[nH]c3)ccnc2c1 | > 200 µM | 15.5 µM | 
64 | COc1cc2c(cc1O)C1(C(=O)c3ccc4c(c3[C@H]1O)OCO4)N(C)CC2 (stereo not given in full) |  |  | inactive
65 | COc1ccc(NC(=O)CC(=O)N/N=C(/C)c2cc3cc(N=Nc4ccccc4Cl)ccc3oc2=O)cc1 | > 9.77 µM | > 9.77 µM | 
